Patent US12110289B2, “Heterocyclic compounds, preparation methods and uses thereof” (InventisBio Co., Ltd., priority 2020, dated 2024)
Like-named read-outs stand apart in the source and are kept apart here. Each block holds one molecule with its values, some of them ahead of it.

Legend:
[1] = system: Lung cancer cell line NCI-H358 containing KRas G12C mutation; test: Assay for cell proliferation (Cell-titer Glo, 5 days); type: cell-based, human; conditions: NCI-H358, 5 days, Cell-titer Glo, read-out: IC50 (nM), Inhibition of NCI-H358 Cell Proliferation
Procedure, shortened: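 NCI-H358 (KRas G12C) cells, 2000 per well, attached overnight at 37 °C, 5% CO2, then treated with compound for 5 days at 0.5% DMSO final. Proliferation measured by CellTiter-Glo luminescence after 10 min at RT.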

pooled human hepatocytes = test: Human hepatocyte clearance study; type: in vitro ADME; conditions: working cell density 0.5 × 10^6 viable cells/mL
Description: (§1) The in vitro human hepatocyte clearance of compounds described here was studied using pooled human hepatocytes purchased from BioreclamationIVT (Westbury, NY, Cat #X008001, Lot #TQJ). The assay was conducted according to manufacturer's instruction. Briefly, 10 mM stock solutions of test compounds and positive control (Verapamil) were prepared in 100% DMSO. Thawing media (50 mL) used in the study consists of 31 mL Williams E medium (GIBCO Cat #12551-032), 15 mL isotonic percoll (GE Healthcare Cat #17-0891-09), 500 uL 100× GlutaMax (GIBCO Cat #35050), 750 uL HEPES (GIBCO Cat #15630-080), 2.5 mL FBS (Corning Cat #35-076-CVR), 50 uL human insulin (GIBCO Cat #12585-014) and 5 uL dexamethasone (NICPBP). Incubation media is made of Williams E medium supplemented with 1× GlutaMax. Both thawing medium and incubation medium (serum-free) were placed in a 37° C. water bath for at least 15 minutes prior to use. Compound stock solutions were diluted to 100 μM by combining 198 μL of 50% acetonitrile/50% water and 2 μL of 10 mM stock solution. Verapamil was use as positive control in the assay. Vials of cryopreserved hepatocytes were removed from storage and thawed in a 37° C. water bath with gentle shaking. Contents of the vial were poured into the 50 mL thawing medium conical tube. Vials were centrifuged at 100 g for 10 minutes at room temperature. […] […] […] The boiled hepatocytes were used to prepare negative samples. Aliquots of 198 μL hepatocytes were dispensed into each well of a 96-well non-coated plate. The plate was placed in the incubator on an orbital shaker at 500 rpm for approximately 10 minutes. Aliquots of 2 μL of the 100 μM test compound or positive control were added into respective wells of the non-coated 96-well plate to start the reaction. This assay was performed in duplicate. The plate was incubated in the incubator on an orbital shaker at 500 rpm for the designated time points. Twenty-five microliter of contents were transferred and mixed with 6 volumes (150 μL) of cold acetonitrile with IS (200 nM imipramine, 200 nM labetalol and 200 nM diclofenac) to terminate the reaction at time points of 0, 15, 30, 60, 90 and 120 minutes. Samples were centrifuged at 3,220 g for 25 minutes and aliquots of 150 μL of the supernatants were used for LC-MS/MS analysis. For data analysis, all calculations were carried out using Microsoft Excel. Peak areas were determined from extracted ion chromatograms. The in vitro half-life (t1/2) of parent compound was determined by regression analysis of the percent parent disappearance vs. time curve. […] Scaling factors for in vivo intrinsic clearance prediction using human hepatocytes are listed as: liver weight (g liver/kg body weight): 25.7; hepatocyte concentration (10^6 cells/g liver): 99; scaling factor: 2544.3.

[2] = Human hepatocyte clearance study; type: in vitro ADME; conditions: human, pooled cryopreserved human hepatocytes (suspension), working cell density 0.5 × 10^6 viable cells/mL; for hepatocyte CLint at 1 µM: read-out: Human In vitro Clint (μl/min/10^6 cells); for half-life at 1 µM: read-out: Human In vitro T1/2; for CLint scaled at 1 µM: scaling factor 2544.3, read-out: Human Scale-up Clint
Description: as §1

SMILES: C=CC(=O)N1CCN(c2nc(=O)n(-c3c(C(C)C)nc(OC)nc3C(C)C)c3nc(-c4ccccc4F)c(Cl)cc23)[C@@H](C)C1 [Compound 8]
- IC50 ([1]; Homo sapiens, NCI-H358, 120 h): 11.2 nM
- Human Hepatocyte Remaining Percentage @ 120 min (%) (pooled human hepatocytes): 2.1%
- hepatocyte CLint at 1 µM [2]: 63.8 µL/min/1e6 cells
- half-life at 1 µM [2]: 0.362 h
- CLint scaled at 1 µM [2]: 162 mL/min/kg

SMILES: C=CC(=O)N1CCN(c2nc(=O)n(-c3c(C(C)C)nc(N)nc3C(C)C)c3nc(-c4c(O)cccc4F)c(F)cc23)[C@@H](C)C1 [Compound 108]
- IC50 ([1]; Homo sapiens, NCI-H358, 120 h): 46.5 nM

SMILES: C=CC(=O)N1C[C@H](C)N(c2nc(=O)n(-c3c(C(C)C)nc(N)nc3C(C)C)c3nc(-c4c(O)cccc4F)c(F)cc23)C[C@H]1C [Compound 109]
- IC50 ([1]; Homo sapiens, NCI-H358, 120 h): 12.3 nM

SMILES: C=CC(=O)N1CCN(c2nc(=O)n(-c3c(C4CC4)nc(N)nc3C3CC3)c3nc(-c4c(O)cccc4F)c(F)cc23)[C@@H](C)C1 [Compound 112]
- IC50 ([1]; Homo sapiens, NCI-H358, 120 h): 32.1 nM

SMILES: C=CC(=O)N1C[C@H](C)N(c2nc(=O)n(-c3c(C4CC4)nc(N)nc3C3CC3)c3nc(-c4c(O)cccc4F)c(F)cc23)C[C@H]1C [Compound 113]
- IC50 ([1]; Homo sapiens, NCI-H358, 120 h): 48.5 nM

SMILES: C=CC(=O)N1C[C@H](C)N(c2nc(=O)n(-c3c(C4CC4)nc(C)nc3C3CC3)c3nc(-c4cccc5[nH]nc(N)c45)c(F)cc23)C[C@H]1C [Compound 114]
- IC50 ([1]; Homo sapiens, NCI-H358, 120 h): 497 nM

SMILES: C=CC(=O)N1CCN(c2nc(=O)n(-c3c(C4CC4)nc(N4CCNCC4)nc3C3CC3)c3nc(-c4ccccc4F)c(Cl)cc23)[C@@H](C)C1 [Compound 116]
- IC50 ([1]; Homo sapiens, NCI-H358, 120 h): 15.8 nM

SMILES: C=CC(=O)N1CCN(c2nc(=O)n(-c3c(C(C)C)nc4ocnc4c3C)c3nc(-c4ccccc4F)c(Cl)cc23)[C@@H](C)C1 [Compound 117]
- IC50 ([1]; Homo sapiens, NCI-H358, 120 h): 12.9 nM

SMILES: C=CC(=O)N1CCN(c2nc(=O)n(-c3c(C(C)C)nc(C(F)(F)F)nc3C(C)C)c3nc(-c4c(N)cccc4F)c(F)cc23)[C@@H](C)C1 [Compound 118]
- IC50 ([1]; Homo sapiens, NCI-H358, 120 h): 40.2 nM

SMILES: C[C@H]1CN(C(=O)/C=C/CN2CC(F)C2)CCN1c1nc(=O)n(-c2c(C3CC3)ncnc2C2CC2)c2nc(-c3c(N)cccc3F)c(Cl)cc12 [Compound 120]
- IC50 ([1]; Homo sapiens, NCI-H358, 120 h): 146 nM

SMILES: C=CC(=O)N1C[C@H](C)N(c2nc(=O)n(-c3c(C(C)C)nc(C(=O)O)nc3C(C)C)c3nc(-c4ccccc4F)c(F)cc23)C[C@H]1C [Compound 121]
- IC50 ([1]; Homo sapiens, NCI-H358, 120 h): > 3000 nM

SMILES: C=CC(=O)N1C[C@H](C)N(c2nc(=O)n(-c3c(C(C)C)nc(C(=O)O)nc3C(C)C)c3nc(-c4c(O)cccc4F)c(F)cc23)C[C@H]1C [Compound 122]
- IC50 ([1]; Homo sapiens, NCI-H358, 120 h): > 3000 nM

SMILES: C=CC(=O)N1C[C@H](C)N(c2nc(=O)n(-c3c(C(C)C)nc(C(=O)O)nc3C(C)C)c3nc(-c4c(N)cccc4F)c(F)cc23)C[C@H]1C [Compound 123]
- IC50 ([1]; Homo sapiens, NCI-H358, 120 h): > 3000 nM

SMILES: C=C(F)C(=O)N1CCN(c2nc(=O)n(-c3c(C4CC4)ncnc3C3CC3)c3nc(-c4c(N)cccc4F)c(Cl)cc23)[C@@H](C)C1 [Compound 131]
- IC50 ([1]; Homo sapiens, NCI-H358, 120 h): 210 nM

SMILES: C=C(F)C(=O)N1C[C@H](C)N(c2nc(=O)n(-c3c(C4CC4)ncnc3C3CC3)c3nc(-c4c(N)cccc4F)c(Cl)cc23)C[C@H]1C [Compound 132]
- IC50 ([1]; Homo sapiens, NCI-H358, 120 h): 157 nM

SMILES: COC/C=C/C(=O)N1C[C@H](C)N(c2nc(=O)n(-c3c(C4CC4)ncnc3C3CC3)c3nc(-c4c(N)cccc4F)c(Cl)cc23)C[C@H]1C [Compound 140]
- IC50 ([1]; Homo sapiens, NCI-H358, 120 h): 58.7 nM

SMILES: C=CC(=O)N1CCN(c2nc(=O)n(-c3c(C)cc4c(ncn4C)c3C(C)C)c3nc(-c4c(N)cccc4F)c(Cl)cc23)[C@@H](C)C1 [Compound 152]
- IC50 [1]: 0.4 nM

SMILES: C=CC(=O)N1CCN(c2nc(=O)n(-c3c(C)nc4c(ncn4C)c3C(C)C)c3nc(-c4c(N)cccc4F)c(F)cc23)[C@@H](C)C1 [Compound 157]
- IC50 [1]: 152 nM

SMILES: C=CC(=O)N1C[C@H](C)N(c2nc(=O)n(-c3c(C(C)C)nc4c(ncn4C)c3C)c3nc(-c4ccccc4F)c(Cl)cc23)C[C@H]1C [Compound 181]
- IC50 [1]: 44.4 nM

The next lines start with results.

- IC50 ([1]; Homo sapiens, NCI-H358, 120 h): 10 nM
SMILES: C=CC(=O)N1CCN(c2nc(=O)n(-c3c(C4CC4)ncnc3C3CC3)c3nc(-c4ccccc4F)c(Cl)cc23)[C@@H](C)C1 [Compound 1]
- Human Hepatocyte Remaining Percentage @ 120 min (%) (pooled human hepatocytes): 27.9%
- hepatocyte CLint at 1 µM [2]: 20.8 µL/min/1e6 cells
- half-life at 1 µM [2]: 1.11 h
- CLint scaled at 1 µM [2]: 53 mL/min/kg

- IC50 ([1]; Homo sapiens, NCI-H358, 120 h): 4.9 nM
SMILES: C=CC(=O)N1CCN(c2nc(=O)n(-c3c(C(C)C)nc(N)nc3C(C)C)c3nc(-c4ccccc4F)c(Cl)cc23)[C@@H](C)C1 [Compound 6]
- Human Hepatocyte Remaining Percentage @ 120 min (%) (pooled human hepatocytes): 33.4%
- hepatocyte CLint at 1 µM [2]: 19.3 µL/min/1e6 cells
- half-life at 1 µM [2]: 1.2 h
- CLint scaled at 1 µM [2]: 49.2 mL/min/kg

- IC50 ([1]; Homo sapiens, NCI-H358, 120 h): 4.1 nM
SMILES: C=CC(=O)N1CCN(c2nc(=O)n(-c3c(C(C)C)nc(C)nc3C(C)C)c3nc(-c4ccccc4F)c(Cl)cc23)[C@@H](C)C1 [Compound 9]
- Human Hepatocyte Remaining Percentage @ 120 min (%) (pooled human hepatocytes): 18.6%
- hepatocyte CLint at 1 µM [2]: 27.6 µL/min/1e6 cells
- half-life at 1 µM [2]: 0.837 h
- CLint scaled at 1 µM [2]: 70.2 mL/min/kg

- IC50 ([1]; Homo sapiens, NCI-H358, 120 h): 6.5 nM
SMILES: C=CC(=O)N1CCN(c2nc(=O)n(-c3c(C(C)C)nc(OCCN(C)C)nc3C(C)C)c3nc(-c4ccccc4F)c(Cl)cc23)[C@@H](C)C1 [Compound 13]
- Human Hepatocyte Remaining Percentage @ 120 min (%) (pooled human hepatocytes): 103%
- Human In vitro T1/2 (min) (pooled human hepatocytes): ∞^b

- IC50 ([1]; Homo sapiens, NCI-H358, 120 h): 8.8 nM
SMILES: C=CC(=O)N1CCN(c2nc(=O)n(-c3c(C(C)C)nc(N4CCNCC4)nc3C(C)C)c3nc(-c4ccccc4F)c(Cl)cc23)[C@@H](C)C1 [Compound 14]
- Human Hepatocyte Remaining Percentage @ 120 min (%) (pooled human hepatocytes): 75.7%
- hepatocyte CLint at 1 µM [2]: 4.5 µL/min/1e6 cells
- half-life at 1 µM [2]: 5.1 h
- CLint scaled at 1 µM [2]: 11.5 mL/min/kg

- IC50 ([1]; Homo sapiens, NCI-H358, 120 h): 6.7 nM
SMILES: C=CC(=O)N1CCN(c2nc(=O)n(-c3c(C4CC4)nc(OCCN(C)C)nc3C3CC3)c3nc(-c4ccccc4F)c(Cl)cc23)[C@@H](C)C1 [Compound 20]
- Human Hepatocyte Remaining Percentage @ 120 min (%) (pooled human hepatocytes): 74.3%
- hepatocyte CLint at 1 µM [2]: 5.1 µL/min/1e6 cells
- half-life at 1 µM [2]: 4.57 h
- CLint scaled at 1 µM [2]: 12.9 mL/min/kg

- IC50 ([1]; Homo sapiens, NCI-H358, 120 h): 10.1 nM
SMILES: C=CC(=O)N1CCN(c2nc(=O)n(-c3c(C4CC4)nc(N)nc3C3CC3)c3nc(-c4c(O)cccc4F)c(Cl)cc23)[C@@H](C)C1 [Compound 110]

- IC50 ([1]; Homo sapiens, NCI-H358, 120 h): 6.3 nM
SMILES: C=CC(=O)N1C[C@H](C)N(c2nc(=O)n(-c3c(C4CC4)nc(N)nc3C3CC3)c3nc(-c4c(O)cccc4F)c(Cl)cc23)C[C@H]1C [Compound 111]

- IC50 ([1]; Homo sapiens, NCI-H358, 120 h): 4.6 nM
SMILES: C=CC(=O)N1C[C@H](C)N(c2nc(=O)n(-c3c(C4CC4)nc(N4CCNCC4)nc3C3CC3)c3nc(-c4c(N)cccc4F)c(Cl)cc23)C[C@H]1C [Compound 115]

- IC50 ([1]; Homo sapiens, NCI-H358, 120 h): 9.6 nM
SMILES: C=CC(=O)N1CCN(c2nc(=O)n(-c3c(C4CC4)nc(OC(F)F)nc3C3CC3)c3nc(-c4c(N)cccc4F)c(F)cc23)[C@@H](C)C1 [Compound 119]

- IC50 ([1]; Homo sapiens, NCI-H358, 120 h): 1.5 nM
SMILES: C=CC(=O)N1C[C@H](C)N(c2nc(=O)n(-c3c(F)cc4c(ncn4C)c3C(C)C)c3nc(-c4c(O)cccc4F)c(Cl)cc23)C[C@H]1C [Compound 166]
